According to ChEMBL document CHEMBL1131739, “Synthesis of 25-aminosterols, new antifungal agents” (1999):
Values after ≈ are worked out from the molar mass of the structure shown.

System: Candida albicans
Assay: In vitro antifungal activity against candida albicans (IP 1180.79)
Format: functional

Structure (SMILES) | MIC [µM]
C[C@H](CCCC(C)(C)N)C1CC[C@@]2(C)C3=C(CC[C@]12C)[C@@]1(C)CC[C@H](O)C(C)(C)C1CC3 (some centres not stated) | 60 (≈ 26.6 µg/mL)
C[C@H](CCCC(C)(C)N)C1CCC2C3CC=C4C[C@@H](O)CC[C@]4(C)C3CC[C@@]21C (some centres not stated) | 4 (≈ 1.61 µg/mL)
